Results taken from the NIST ThermoML archive (doi:10.1016/j.fluid.2016.02.009).

Settings: Liquid, Vibrating tube method

CC(C)CCOCCC(C)C [di-(3-methylbutyl) ether]
Settings | mass density [kg/m3]
283.15 K, 100 kPa | 782.76
283.15 K, 5000 kPa | 786.88
283.15 K, 10000 kPa | 790.71
283.15 K, 15000 kPa | 794.36
283.15 K, 20000 kPa | 797.85
283.15 K, 25000 kPa | 801.22
283.15 K, 30000 kPa | 804.45
283.15 K, 35000 kPa | 807.58
283.15 K, 40000 kPa | 810.61
283.15 K, 45000 kPa | 813.52
283.15 K, 50000 kPa | 816.37
283.15 K, 55000 kPa | 819.14
283.15 K, 60000 kPa | 821.82
283.15 K, 65000 kPa | 824.44
288.15 K, 100 kPa | 778.71
288.15 K, 5000 kPa | 782.95
288.15 K, 10000 kPa | 786.89
288.15 K, 15000 kPa | 790.64
288.15 K, 20000 kPa | 794.22
288.15 K, 25000 kPa | 797.65
288.15 K, 30000 kPa | 800.95
288.15 K, 35000 kPa | 804.15
288.15 K, 40000 kPa | 807.23
288.15 K, 45000 kPa | 810.19
288.15 K, 50000 kPa | 813.09
288.15 K, 55000 kPa | 815.91
288.15 K, 60000 kPa | 818.64
288.15 K, 65000 kPa | 821.33
293.15 K, 100 kPa | 774.66
293.15 K, 5000 kPa | 779.03
293.15 K, 10000 kPa | 783.04
293.15 K, 15000 kPa | 786.89
293.15 K, 20000 kPa | 790.55
293.15 K, 25000 kPa | 794.08
293.15 K, 30000 kPa | 797.46
293.15 K, 35000 kPa | 800.71
293.15 K, 40000 kPa | 803.86
293.15 K, 45000 kPa | 806.9
293.15 K, 50000 kPa | 809.84
293.15 K, 55000 kPa | 812.71
293.15 K, 60000 kPa | 815.48
293.15 K, 65000 kPa | 818.18
298.15 K, 100 kPa | 770.6
298.15 K, 5000 kPa | 775.09
298.15 K, 10000 kPa | 779.24
298.15 K, 15000 kPa | 783.18
298.15 K, 20000 kPa | 786.94
298.15 K, 25000 kPa | 790.54
298.15 K, 30000 kPa | 793.99
298.15 K, 35000 kPa | 797.31
298.15 K, 40000 kPa | 800.51
298.15 K, 45000 kPa | 803.61
298.15 K, 50000 kPa | 806.62
298.15 K, 55000 kPa | 809.51
298.15 K, 60000 kPa | 812.33
298.15 K, 65000 kPa | 815.07
303.15 K, 100 kPa | 766.54
303.15 K, 5000 kPa | 771.15
303.15 K, 10000 kPa | 775.41
303.15 K, 15000 kPa | 779.46
303.15 K, 20000 kPa | 783.3
303.15 K, 25000 kPa | 786.98
303.15 K, 30000 kPa | 790.53
303.15 K, 35000 kPa | 793.91
303.15 K, 40000 kPa | 797.19
303.15 K, 45000 kPa | 800.34
303.15 K, 50000 kPa | 803.4
303.15 K, 55000 kPa | 806.36
303.15 K, 60000 kPa | 809.23
303.15 K, 65000 kPa | 812.01
308.15 K, 100 kPa | 762.46
308.15 K, 5000 kPa | 767.21
308.15 K, 10000 kPa | 771.57
308.15 K, 15000 kPa | 775.74
308.15 K, 20000 kPa | 779.67
308.15 K, 25000 kPa | 783.45
308.15 K, 30000 kPa | 787.05
308.15 K, 35000 kPa | 790.52
308.15 K, 40000 kPa | 793.86
308.15 K, 45000 kPa | 797.07
308.15 K, 50000 kPa | 800.19
308.15 K, 55000 kPa | 803.2
308.15 K, 60000 kPa | 806.11
308.15 K, 65000 kPa | 808.94
313.15 K, 100 kPa | 758.37
313.15 K, 5000 kPa | 763.24
313.15 K, 10000 kPa | 767.74
313.15 K, 15000 kPa | 772.01
313.15 K, 20000 kPa | 776.05
313.15 K, 25000 kPa | 779.9
313.15 K, 30000 kPa | 783.59
313.15 K, 35000 kPa | 787.12
313.15 K, 40000 kPa | 790.53
313.15 K, 45000 kPa | 793.81
313.15 K, 50000 kPa | 796.97
313.15 K, 55000 kPa | 800.03
313.15 K, 60000 kPa | 803
313.15 K, 65000 kPa | 805.88
318.15 K, 100 kPa | 754.27
318.15 K, 5000 kPa | 759.27
318.15 K, 10000 kPa | 763.91
318.15 K, 15000 kPa | 768.28
318.15 K, 20000 kPa | 772.42
318.15 K, 25000 kPa | 776.38
318.15 K, 30000 kPa | 780.14
318.15 K, 35000 kPa | 783.75
318.15 K, 40000 kPa | 787.22
318.15 K, 45000 kPa | 790.57
318.15 K, 50000 kPa | 793.81
318.15 K, 55000 kPa | 796.91
318.15 K, 60000 kPa | 799.93
318.15 K, 65000 kPa | 802.85
323.15 K, 100 kPa | 750.16
323.15 K, 5000 kPa | 755.32
323.15 K, 10000 kPa | 760.1
323.15 K, 15000 kPa | 764.59
323.15 K, 20000 kPa | 768.84
323.15 K, 25000 kPa | 772.87
323.15 K, 30000 kPa | 776.74
323.15 K, 35000 kPa | 780.43
323.15 K, 40000 kPa | 783.97
323.15 K, 45000 kPa | 787.37
323.15 K, 50000 kPa | 790.66
323.15 K, 55000 kPa | 793.83
323.15 K, 60000 kPa | 796.89
323.15 K, 65000 kPa | 799.86
328.15 K, 100 kPa | 746.03
328.15 K, 5000 kPa | 751.35
328.15 K, 10000 kPa | 756.23
328.15 K, 15000 kPa | 760.85
328.15 K, 20000 kPa | 765.22
328.15 K, 25000 kPa | 769.33
328.15 K, 30000 kPa | 773.28
328.15 K, 35000 kPa | 777.06
328.15 K, 40000 kPa | 780.66
328.15 K, 45000 kPa | 784.15
328.15 K, 50000 kPa | 787.49
328.15 K, 55000 kPa | 790.7
328.15 K, 60000 kPa | 793.83
328.15 K, 65000 kPa | 796.84
333.15 K, 100 kPa | 741.88
333.15 K, 5000 kPa | 747.34
333.15 K, 10000 kPa | 752.39
333.15 K, 15000 kPa | 757.12
333.15 K, 20000 kPa | 761.58
333.15 K, 25000 kPa | 765.79
333.15 K, 30000 kPa | 769.84
333.15 K, 35000 kPa | 773.7
333.15 K, 40000 kPa | 777.39
333.15 K, 45000 kPa | 780.93
333.15 K, 50000 kPa | 784.33
333.15 K, 55000 kPa | 787.59
333.15 K, 60000 kPa | 790.76
333.15 K, 65000 kPa | 793.83
